As usually defined, the IC50 is the concentration needed to halve the response being measured.

Assay [1] relates to human cervical cancer (HeLa) cell line. Nature of the assay: MTT assay on HeLa cells. As to conditions: 200 µg × mL−1, 24 h. The assay is classed as cell-based. On the procedure: The cytotoxic activity of the selected 17 CPs against the HeLa cervical cancer cell line (Merck KGaA, Darmstadt, Germany) was assessed with the MTT (3-(4,5-dimethylthiazole-2-yl)-2,5-diphenyltetrazolium bromide) assay according to Felczykowska et al.. HeLa cells were seeded at 4 × 10^3 cells per well in DMEM medium (Merck KGaA) supplemented with 10% (v/v) fetal bovine serum (Merck KGaA) and penicillin-streptomycin solution (1% v/v, stock solution 50 u and 0.05 mg × mL^−1, respectively; Merck KGaA). Cells were allowed to attach overnight, and then the tested compounds prepared in 1% DMSO were added. After incubation (24 h), 25 µL of MTT solution (4 mg × mL^−1; Merck KGaA) were added and then the samples were incubated for another 4 h. The formazan crystals were dissolved with 100% DMSO and absorbance was measured with Spectramax i3 (Molecular Deviecs, LLC San Jose, CA, USA). The reduction in cell viability greater than 60% was considered as significant.

Assay [2] concerns the target chymotrypsin (Bos taurus, UniProt P00766). Also noted: method as in PMID 29949853. As to conditions: results published earlier; read-out: CHY (chymotrypsin) IC50, value marked *; cited from earlier work.
For the next assay, the target named is T1, trypsin (Bos taurus, UniProt P00760).
T1 sequence (P00760 24-246): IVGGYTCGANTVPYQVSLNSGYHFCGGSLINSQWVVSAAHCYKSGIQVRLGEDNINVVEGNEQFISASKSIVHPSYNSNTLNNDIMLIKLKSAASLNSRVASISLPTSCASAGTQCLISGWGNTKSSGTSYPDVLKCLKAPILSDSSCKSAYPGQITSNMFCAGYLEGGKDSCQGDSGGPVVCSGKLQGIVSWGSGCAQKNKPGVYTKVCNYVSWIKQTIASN
The experiment in a line: Trypsin inhibition assay. The class given is biochemical. As to conditions: class symbol instead of IC50. On the procedure:
(§1) The enzyme inhibitory activity of cyanopeptolins was assayed against trypsin [108], chymotrypsin, thrombin [109], and elastase as described before. In brief, the samples were prepared and serially diluted (1 mg, 1:1—1:10,000 times) in 1% DMSO; the standard inhibitors: aprotinin (trypsin and chymotrypsin) AEBSF 4-(2-aminoethyl)benzenesulfonyl fluoride hydrochloride (thrombin), elastatinal (elastase) (all from Sigma Aldrich; St. Louis, MO, USA) were also prepared in 1% DMSO. DMSO (1%) without the addition of the enzyme served as a negative control. All tests were carried out in triplicates. After the incubation of the assay mixtures, the absorbances were measured at 405 nm (Varioskan Flash Thermo Fisher Scientific OY, Vantaa, Finland). The reduction in enzyme activity greater than 50% was considered as significant.

For assay [3], the system named is chymotrypsin. Nature of the assay: Chymotrypsin inhibition assay. The class given is biochemical. As to conditions: read-out: CHY (chymotrypsin) IC50. On the procedure: as §1, with “In” for “The enzyme inhibitory activity of cyanopeptolins was assayed against trypsin [108], chymotrypsin, thrombin [109], and elastase as described before. In”
Another assay deals with elastase (Sus scrofa, UniProt P00772). Nature of the assay: Elastase inhibition assay. As to conditions: class symbol instead of IC50. The class given is biochemical. The procedure: as §1
Another assay has as its target thrombin (Homo sapiens, UniProt P00734). Nature of the assay: Thrombin inhibition assay. The class given is biochemical. As to conditions: highest concentration in the assay 45 µg × mL−1. On the procedure: as §1

Chain of elastase (P00772 27-266): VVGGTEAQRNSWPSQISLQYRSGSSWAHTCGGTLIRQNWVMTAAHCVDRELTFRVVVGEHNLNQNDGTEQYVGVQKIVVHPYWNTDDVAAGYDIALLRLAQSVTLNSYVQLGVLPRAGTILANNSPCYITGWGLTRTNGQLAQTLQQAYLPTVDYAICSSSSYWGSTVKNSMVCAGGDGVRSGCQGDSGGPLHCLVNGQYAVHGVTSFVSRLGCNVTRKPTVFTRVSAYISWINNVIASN

As for `CCCC(=O)N[C@@H](CC(=O)O)C(=O)N[C@@H]1C(=O)N[C@@H](CCCNC(=N)N)C(=O)N[C@H]2CC[C@@H](O)N(C2=O)[C@@H](Cc2ccccc2)C(=O)N(C)[C@@H](Cc2ccc(O)cc2)C(=O)N[C@@H](C(C)C)C(=O)O[C@@H]1C` [CP 978, [Thr + Arg + Ahp + Phe + MeTyr + Val]Asp + BA], in assay [1], the “reduction in cell viability versus control” value is given as 62.5%. Besides, at chymotrypsin [2], the IC50 is 3.8 µM.
For `CCCCCC(=O)N[C@@H](CC(=O)O)C(=O)N[C@@H]1C(=O)N[C@@H](Cc2ccccc2)C(=O)N[C@H]2CC[C@@H](O)N(C2=O)[C@@H](Cc2ccccc2)C(=O)N(C)[C@@H](Cc2ccccc2)C(=O)N[C@@H](C(C)C)C(=O)O[C@@H]1C` [CP 981, [Thr + Phe + Ahp + Phe + MePhe + Val]Asp + HA], on trypsin, the “TRY (trypsin) inhibition class” value is reported as “− (not active (inhibition below 50%))”. For the same compound, the IC50 in the assay on chymotrypsin [3] amounted to 3.92 µM. At elastase, the “E (elastase) inhibition class” value was “− (not active (inhibition below 50%))”. For the same compound, the “TRB (thrombin) inhibition class” value at thrombin was “− (not active (inhibition below 50%))”.

Values taken from article PMC10608790, “Structural Diversity and Biological Activity of Cyanopeptolins Produced by Nostoc edaphicum CCNP1411” (Marine Drugs, 2023).
